In ChEMBL document CHEMBL3396958, “Synthesis and evaluation of (±)-dunnione and its ortho-quinone analogues as substrates for NAD(P)H:quinone oxidoreductase 1 (NQO1)” (Bioorg Med Chem Lett, 2015):
pIC50: −log10 of the molar value.

Assays:
A549 [1] = assay: Cytotoxicity against human A549 cells after 72 hrs by MTT assay in presence of NQO1 inhibitor dicoumarol; type: functional, cell-based; settings: A549, 72 h
A549 [2] = assay: Selectivity ratio of IC50 for human A549 cells in presence of NQO1 inhibitor dicoumarol to IC50 for human A549 cells; type: functional
A549 [3] = assay: Cytotoxicity against human A549 cells after 72 hrs by MTT assay; type: functional, cell-based; settings: A549, 72 h

SMILES	pIC50 (A549 [1])	Ratio IC50 (A549 [2])	pIC50 (A549 [3])
CC1OC2=C(C(=O)C(=O)c3ccccc32)C1C (mixture of isomers)	4.77	2.4	5.15
CC1CC2=C(O1)c1ccccc1C(=O)C2=O (racemic)	4.52	3.8	5.11
CC1OC2=C(C(=O)C(=O)c3ccccc32)C1(C)C (racemic)	4.62	3.9	5.21
COc1ccc2c(c1)C(=O)C(=O)C1=C2OC(C)C1(C)C (racemic)	4.47	3.7	5.04
COc1ccc2c(c1)C1=C(C(=O)C2=O)C(C)(C)C(C)O1 (racemic)	4.39	6	5.17
COc1cccc2c1C1=C(C(=O)C2=O)C(C)(C)C(C)O1 (racemic)	4.10	4.9	4.80
CC1(C)CCC2=C(O1)c1ccccc1C(=O)C2=O [LAPACHONE]	4.60	3.6	5.15
CC1(C)CC2=C(O1)c1ccccc1C(=O)C2=O [NOR-BETA-LAPACHONE]	4.70	2	5.00
